The test system of the assay is Hedgehog signal transduction system (Smo). In words: Gli reporter luciferase assay in NIH-3T3/Gli reporter cells stimulated with mouse Shh-N end fragment. In kind it is cell-based. The following applies: NIH3T3; 1 μM compound; NIH-3T3/Gli reporter cells with mouse Shh-N end fragment culture supernatant, 48 hr; luciferase activity, control without compound as 100; read-out: inhibition rate (%) at 1 μM. The source says:
Inhibition of the Hedgehog signal transduction system can be measured, for example, by quantifying a decrease in the expression level of a reporter gene connected to the downstream of the Gli binding site based on the fluorescence intensity according to the following Experimental Example 1. Alternatively, it can be measured by quantifying the expression of Gli-1 mRNA in a cell extract by quantitative PCR method and the like. A compound that inhibits Hedgehog signal targets Smo, which can be confirmed, for example, by binding fluorescence-labeled Cyclopamine and a test compound to cells expressing Smo, measuring the fluorescence level of the cell, and comparing the value with that without addition of a test compound to find a decrease.
Gli reporter plasmid was constructed by inserting 8×Gli-binding site and chicken δ-crystalline promoter into the upstream of luc+ of pGL3 (Promega).
prepared in reference to the base sequence described in GenBank accession No.; X02187, and chicken genome DNA (Clontech) as a template. PCR reaction was performed using Pfu Turbo (Stratagene) and following the attached protocol. The obtained 108 bp fragment was digested with restriction enzymes BglII and HindIII, and inserted into BglII-HindIII site of pGL3 to give plasmid pGL3/δ-cry promoter.
As 8× Gli-binding site, a sequence containing eight 9-bp Gli bound consensus sequences (GACCACCCA) described in Yoon et al., J. Biol. Chem., vol. 273, pages 3496-3501 (1998) was prepared from synthetic DNA. That is, two synthetic DNAs,
were heat treated at 95° C. for 2 minutes, and incubated at 37° C. for 1 hr for annealing to give a double stranded DNA of the above-mentioned two synthetic DNAs. The obtained double stranded DNA was digested with restriction enzymes BglII and KpnI, and the obtained DNA fragment was inserted into BglII-KpnI site of pGL3/δ-cry promoter to construct plasmid pGL3/δ-cry promoter, 8× Gli binding site, i.e., Gli reporter plasmid. 2. Construction of Plasmid for Expression of Mouse Shh-N End Fragment
As a material for construction of plasmid for Shh-N end fragment expression, mouse Shh cDNA was cloned at first.
The mouse Shh cDNA was cloned by Nested PCR method using mouse 11-day fetus cDNA (Clontech) as a template. The primer sequence was prepared in reference to the base sequence described in GenBank accession No.; NM_009170.
Using the mouse Shh cDNA sequence obtained as mentioned above as a template, a partial cDNA sequence wherein stop codon (TGA) was added to 3′-terminal of cDNA sequence encoding 1st to 198th amino acid sequence of mouse Shh was obtained by PCR method. As the primer set,
In the manner mentioned above, a plasmid for mouse Shh-N end fragment expression, pcDNA3.1/mShh-N, was constructed.
HEK293 cells were grown in D-MEM medium (Invitrogen) containing 10% fetal bovine serum in a 10 cm dish and pcDNA3.1/mShh-N was introduced into the cells using FuGENE6 (Roche Applied Science). Thereafter, the HEK293 cells were cultured in a carbon dioxide gas incubator at 37° C. for 24 hours, and the medium was exchanged with D-MEM medium (Invitrogen) containing 2% fetal bovine serum. After culturing for 48 hr, culture supernatant containing recombinant type mouse Shh-N end fragment was obtained by filtration using a filter ([…]).
Using D-MEM (Invitrogen) containing 10% fetal bovine serum, expression plasmid pcDNA3:1 and Gli reporter plasmid (pGL3/δ-cry promoter, 8× Gli binding site) produced by the method of Experimental Example 1 were introduced into NIH-3T3 cells grown in a 10 cm dish by the use of FuGENE6 (Roche Applied Science).
After culture for 24 hr, the cells were recovered, suspended in D-MEM medium containing 10% fetal bovine serum and supplemented with Geneticin (Life Technologies Oriental, Inc.) to a final concentration of 500 μg/ml, diluted to 10^4 cells/ml, plated on a 96 well plate, and cultured in a carbon dioxide gas incubator at 37° C. to give Geneticin resistant transformed cell line. […]

Usually inhibition stands for the drop in the measured response relative to a control, in per cent.

For `CCc1nc2c(cc1Nc1cccc(OC)c1)c(OCC(F)(F)F)c(C(=O)NC1CCN(C(=O)CO)CC1)n2C` [Example 5, 6-ethyl-N-[1-(hydroxyacetyl)piperidin-4-yl]-5-[(3-methoxyphenyl)amino]-1-methyl-3-(2,2,2-trifluoroethoxy)-1H-pyrrolo[2,3-b]pyridine-2-carboxamide], the inhibition at 1 µM came to 97%.

Regarding `CCc1nc2c(cc1NC(=O)c1ccccc1)c(OCC(F)(F)F)c(C(=O)NC1CCN(C(=O)CO)CC1)n2C` [Example 7, 6-ethyl-N-[1-(hydroxyacetyl)piperidin-4-yl]-1-methyl-5-[(phenylcarbonyl)amino]-3-(2,2,2-trifluoroethoxy)-1H-pyrrolo[2,3-b]pyridine-2-carboxamide], the inhibition at 1 µM worked out at 96%.

With `CCc1nc2c(cc1CC(=O)c1ccccc1)c(OCC(F)(F)F)c(C(=O)NC1CCN(C(=O)CO)CC1)n2C` [Example 9, 6-ethyl-N-[1-(hydroxyacetyl)piperidin-4-yl]-1-methyl-5-(2-oxo-2-phenylethyl)-3-(2,2,2-trifluoroethoxy)-1H-pyrrolo[2,3-b]pyridine-2-carboxamide], the inhibition at 1 µM amounted to 98%.

Regarding `CCc1nc2c(cc1NC(=O)c1ccccc1F)c(OCC(F)(F)F)c(C(=O)NC1CCN(C(=O)CO)CC1)n2C` [Example 22, 6-ethyl-5-{[(2-fluorophenyl)carbonyl]amino}-N-[1-(hydroxyacetyl)piperidin-4-yl]-1-methyl-3-(2,2,2-trifluoroethoxy)-1H-pyrrolo[2,3-b]pyridine-2-carboxamide], the inhibition at 1 µM is 93%.

`CCc1nc2c(cc1NC(=O)c1ccc(F)cc1)c(OCC(F)(F)F)c(C(=O)NC1CCN(C(=O)CO)CC1)n2C` [Example 24, 6-ethyl-5-{[(4-fluorophenyl)carbonyl]amino}-N-[1-(hydroxyacetyl)piperidin-4-yl]-1-methyl-3-(2,2,2-trifluoroethoxy)-1H-pyrrolo[2,3-b]pyridine-2-carboxamide]: the inhibition at 1 µM was found to be 90%.

`CCc1nc2c(cc1NC(=O)c1cccs1)c(OCC(F)(F)F)c(C(=O)NC1CCN(C(=O)CO)CC1)n2C` [Example 29, 6-ethyl-N-[1-(hydroxyacetyl)piperidin-4-yl]-1-methyl-5-[(thiophen-2-ylcarbonyl)amino]-3-(2,2,2-trifluoroethoxy)-1H-pyrrolo[2,3-b]pyridine-2-carboxamide]: the inhibition at 1 µM worked out at 95%.

Take `CCc1nc2c(cc1NC(=O)c1cccc(F)c1)c(OCC(F)(F)F)c(C(=O)NC1CCN(C(=O)CO)CC1)n2C` [Example 30, 6-ethyl-5-{[(3-fluorophenyl)carbonyl]amino}-N-[1-(hydroxyacetyl)piperidin-4-yl]-1-methyl-3-(2,2,2-trifluoroethoxy)-1H-pyrrolo[2,3-b]pyridine-2-carboxamide]: the inhibition at 1 µM was determined as 97%.

Take `CCc1nc2c(cc1NC(=O)c1ccc(Cl)cc1)c(OCC(F)(F)F)c(C(=O)NC1CCN(C(=O)CO)CC1)n2C` [Example 32, 5-{[(4-chlorophenyl)carbonyl]amino}-6-ethyl-N-[1-(hydroxyacetyl)piperidin-4-yl]-1-methyl-3-(2,2,2-trifluoroethoxy)-1H-pyrrolo[2,3-b]pyridine-2-carboxamide]: the inhibition at 1 µM was 98%.

With `CCc1nc2c(cc1NC(=O)c1ccc(F)cc1)c(OC(C)C)c(C(=O)NC1CCN(C(=O)CO)CC1)n2C` [Example 33, 6-ethyl-5-{[(4-fluorophenyl)carbonyl]amino}-N-[1-(hydroxyacetyl)piperidin-4-yl]-1-methyl-3-(1-methylethoxy)-1H-pyrrolo[2,3-b]pyridine-2-carboxamide], the inhibition at 1 µM turned out to be 95%.

On to `CCc1nc2c(cc1NC(=O)c1ccc(OC)cc1)c(OCC(F)(F)F)c(C(=O)NC1CCN(C(=O)CO)CC1)n2C` [Example 34, 6-ethyl-N-[1-(hydroxyacetyl)piperidin-4-yl]-5-{[(4-methoxyphenyl)carbonyl]amino}-1-methyl-3-(2,2,2-trifluoroethoxy)-1H-pyrrolo[2,3-b]pyridine-2-carboxamide], for which the inhibition at 1 µM amounted to 93%.

In the case of `CCc1nc2c(cc1NC(=O)c1ccccc1)c(OCC(F)(F)F)c(C(=O)N[C@H]1CC[C@H](O)CC1)n2C` [Example 37, 6-ethyl-N-(trans-4-hydroxycyclohexyl)-1-methyl-5-[(phenylcarbonyl)amino]-3-(2,2,2-trifluoroethoxy)-1H-pyrrolo[2,3-b]pyridine-2-carboxamide], the inhibition at 1 µM was 87%.

In the case of `CCOc1c(C(=O)NC2CCN(C(=O)CO)CC2)n(C)c2nc(CC)c(NC(=O)c3ccc(F)cc3)cc12` [Example 39, 3-ethoxy-6-ethyl-5-{[(4-fluorophenyl)carbonyl]amino}-N-[1-(hydroxyacetyl)piperidin-4-yl]-1-methyl-1H-pyrrolo[2,3-b]pyridine-2-carboxamide], the inhibition at 1 µM is 96%.

As to `CCc1nc2c(cc1NC(=O)c1ccccc1)c(OCC(F)(F)F)c(C(=O)NC1CCS(=O)(=O)CC1)n2C` [Example 40, N-(1,1-dioxidotetrahydro-2H-thiopyran-4-yl)-6-ethyl-1-methyl-5-[(phenylcarbonyl)amino]-3-(2,2,2-trifluoroethoxy)-1H-pyrrolo[2,3-b]pyridine-2-carboxamide], the inhibition at 1 µM is 97%.

For the molecule `CCc1nc2c(cc1NC(=O)c1ccccc1)c(OCC(F)(F)F)c(C(=O)NC1CC[S+]([O-])CC1)n2C` (stereo not shown) [Example 41, 6-ethyl-1-methyl-N-(1-oxidotetrahydro-2H-thiopyran-4-yl)-5-[(phenylcarbonyl)amino]-3-(2,2,2-trifluoroethoxy)-1H-pyrrolo[2,3-b]pyridine-2-carboxamide], the inhibition at 1 µM was 96%.

In the case of `CCc1nc2c(cc1NC(=O)c1ccccn1)c(OCC(F)(F)F)c(C(=O)NC1CCN(C(=O)CO)CC1)n2C` [Example 42, 6-ethyl-N-[1-(hydroxyacetyl)piperidin-4-yl]-1-methyl-5-[(pyridin-2-ylcarbonyl)amino]-3-(2,2,2-trifluoroethoxy)-1H-pyrrolo[2,3-b]pyridine-2-carboxamide], the inhibition at 1 µM came to 92%.

Regarding `CCOc1c(C(=O)NC2CCN(C(=O)CO)CC2)n(C)c2nc(CC)c(NC(=O)c3ccccc3)cc12` [Example 45, 3-ethoxy-6-ethyl-N-[1-(hydroxyacetyl)piperidin-4-yl]-1-methyl-5-[(phenylcarbonyl)amino]-1H-pyrrolo[2,3-b]pyridine-2-carboxamide], the inhibition at 1 µM is 98%.

`Cc1nc2c(cc1NC(=O)c1ccccc1)c(OCC(F)(F)F)c(C(=O)NC1CCN(C(=O)CO)CC1)n2C` [Example 47, N-[1-(hydroxyacetyl)piperidin-4-yl]-1,6-dimethyl-5-[(phenylcarbonyl)amino]-3-(2,2,2-trifluoroethoxy)-1H-pyrrolo[2,3-b]pyridine-2-carboxamide]: the inhibition at 1 µM turned out to be 97%.

For `Cc1nc2c(cc1NC(=O)c1ccc(F)cc1)c(OCC(F)(F)F)c(C(=O)NC1CCN(C(=O)CO)CC1)n2C` [Example 48, 5-{[(4-fluorophenyl)carbonyl]amino}-N-[1-(hydroxyacetyl)piperidin-4-yl]-1,6-dimethyl-3-(2,2,2-trifluoroethoxy)-1H-pyrrolo[2,3-b]pyridine-2-carboxamide], the inhibition at 1 µM was determined as 97%.

On to `CCc1nc2c(cc1NC(=O)c1ccsc1)c(OCC(F)(F)F)c(C(=O)NC1CCN(C(=O)CO)CC1)n2C` [Example 50, 6-ethyl-N-[1-(hydroxyacetyl)piperidin-4-yl]-1-methyl-5-[(thiophen-3-ylcarbonyl)amino]-3-(2,2,2-trifluoroethoxy)-1H-pyrrolo[2,3-b]pyridine-2-carboxamide], for which the inhibition at 1 µM was found to be 94%.

These data come from patent US8486965B2, “Pyrrolo[2,3-b]pyridine derivative and use thereof for treatment of cancer” (Takeda Pharmaceutical Company Limited, priority 2009, dated 2013).
